Measurements taken from publication PMC11428593 (Antibiotics, 2024).

Test system: S. aureus strain USA300LAC
Assay: Fluorescence microscopy (DAPI/Nile Red) of membrane deformation
Assay type: cell-based, Staphylococcus aureus
From the text: Given the high lipophilic nature and membrane-compromising effects of JC-01-074, we wondered about the possibility that the alkyl chain of JC-01-074 could be incorporated into the phospholipid bilayer, thereby destabilizing the uniform packing of the membrane phospholipids and potentially resulting in “bleb formation”, as this had been reported before. To test this idea, we cultivated the S. aureus strain USA300LAC to the mid-log phase and treated the cells with the indicated concentrations of JC-01-074 and daptomycin (as a positive control), respectively. Samples were collected at 15 and 60 mins of treatment, washed twice, and resuspended in fresh PBS. Cells were then stained with 4′,6-diamidino-2-phenylindole (DAPI) and Nile Red for 10 min, respectively. DAPI is a nucleic acid stain that binds to DNA, while Nile Red is commonly used as an inner membrane stain to quantify lipids. The cells were then mounted onto a glass slide with 1% agarose and imaged at 63× magnification via inverted confocal laser scanning microscopy. […] To rule out the possibility that these blebs were transiently formed, we further imaged the cells exposed to JC-01-074 for 60 min. […] The smaller blebs formed may have extended over the incubation time, resulting in their fusion into large blebs.
Figure 5 JC-01-074 treatment rapidly induces deformations in the S. aureus plasma membrane as indicated by the white arrows. […] Cells were collected at the indicated time points and stained with DAPI (5 µg/mL) and Nile Red (5 µg/mL) for 10 min, following which cells were imaged on 1% agarose pads. Images are representatives of three biological replicates. Scale bar = 1.25 µm.
The overnight USA300LAC cultures were diluted into the TSB media to an O.D.600nm = 0.01 and incubated under shaking conditions at 37 °C until the mid-log phase (O.D.600nm = 0.3) was reached. […] The cells were then imaged on 1% agarose gel pads and via fluorescence microscopy using a Leica SP8 confocal microscope. […] Fluorescence was detected between the wavelengths of 500–560 nm, with an 8×- line averaging.

For `CCCCCCCCCC#Cc1cccc(O)n1` [JC-01-074], the “membrane morphology after 60 min” value (0.5× and 1× MIC, 60 min, USA300LAC) was “formation of aberrant membrane blebs”, the “lowest concentration at which bleb formation was observed” value (USA300LAC plasma membrane, 0.5× MIC) was 8 µg/mL and the “earliest time at which bleb formation was observed” value (USA300LAC, after addition of compound) was 15 min.
